Reference: patent US4072668A, “LH-RH Analogs” (The Salk Institute for Biological Studies, priority 1974, dated 1978)
Non-standard residues stand in square brackets, D forms with d. Residues, ends and D or L forms follow the SMILES beside them. pGlu = O=C1CC[C@@H](C(=O)O)N1

Legend:
pituitary gland [1] = test system: pituitary gland
rats [2] = assay: In vivo suppression of LH secretion generated by injected LRF in rats; set-up: species or system rat; details: molar ratio of peptide to LRF; rats injected with 100 nanograms of LRF
Method: (§1) The effectiveness of the peptide compositions which stimulate secretion of gonadotropins was determined in vivo by intravenous injection of 100 nanograms of the peptide into rats. The rats were chronically ovariectomized and were treated with estrogen and progesterone prior to assay. The LH level was determined in plasma by solid phase radioimmunoassay for rat LH. For those peptide compositions which are antagonistic to secretion of gonadotropins, the rats were injected with 100 nanograms of LRF and the molar ratio of the peptide required to suppress section of LH generated by the LRF was determined.

pituitary gland [3] = assay: Inhibition of release of gonadotropins by the pituitary gland (test not given); set-up: species or system mammalians; details: relative to Gly6 peptide
[4] = test system: dispersed rat pituitary cells; assay: In vitro suppression of LRF-generated LH secretion in dispersed rat pituitary cell culture; assay type: cell-based; details: molar ratio of peptide to LRF; culture inoculated with 3×10^-5 M of LRF
Method: (§2) Using the above method, the peptide compositions set forth below in Tables I and II were prepared. The peptide compositions were assayed in vitro and in vivo. The in vitro assay was made using a 5 day old primary culture of dispersed rat pituitary cells. The LH secreted in response to the peptide compositions was assayed by specific radioimmunoassay for rat LH. The peptide compositions were applied to the culture at a level of 3×10^-5 M. The potency of these peptide compositions which stimulate secretion of gonadotropins is expressed in terms of percent LRF potency wherein LRF has a potency of 100. For those peptide compositions which are antagonistic to secretion of gonadotropins, the culture was inoculated with 3×10^-5 M of LRF and the molar ratio of the peptide required to suppress secretion of LH generated by the LRF was determined.

[5] = test system: dispersed rat pituitary cells; assay: In vitro LH secretion by primary culture of dispersed rat pituitary cells (stimulation), rat LH radioimmunoassay; assay type: cell-based; details: peptide applied to culture at 3×10^-5 M; LRF has a potency of 100
Method: as §2

rats [6] = assay: In vivo plasma LH after intravenous injection into ovariectomized, estrogen/progesterone-treated rats; set-up: species or system rat; details: intravenous injection of 100 nanograms of peptide, LRF = 100
Method: as §1

pituitary gland [7] = assay: Release of gonadotropins after administration to a mammal; assay type: in vivo; details: 500 nanograms per kilogram of body weight

Compound | percent potency for effecting release of luteinizing hormone (compared to the LRF decapeptide) (pituitary gland [1]) [%] | Molar ratio necessary to produce inhibition In Vivo (rats [2]) | Molar ratio necessary to produce inhibition In Vitro [4] | further results
CC(C)C[C@H](NC(=O)[C@H]1CCCN1C(=O)[C@H](Cc1ccc(O)cc1)NC(=O)[C@H](CO)NC(=O)[C@H](Cc1c[nH]c2ccccc12)NC(=O)[C@H](Cc1c[nH]cn1)NC(=O)[C@@H]1CCC(=O)N1)C(=O)N[C@@H](CCCNC(=N)N)C(=O)N1CCC[C@H]1C(=O)NCC(N)=O [D-Pro] | 10 | – | – | –
CC(C)C[C@H](NC(=O)[C@@H](C)NC(=O)[C@H](Cc1ccc(O)cc1)NC(=O)[C@H](CO)NC(=O)[C@H](Cc1c[nH]c2ccccc12)NC(=O)[C@@H]1CCC(=O)N1)C(=O)N[C@@H](CCCNC(=N)N)C(=O)N1CCC[C@H]1C(=O)NCC(N)=O [pGlu-Trp-Ser-Tyr-D-Ala-Leu-Arg-Pro-Gly-NH2] ([pGlu]WSY[dA]LRPG-NH2) | – | 500 | 700 | times more potent as inhibitor for release of gonadotropins than the same peptide with Gly in the 6-position (pituitary gland [3]): 3 times
pGlu-His-Trp-Ser-Tyr-Gly-Leu-Arg-Pro-NHCH 2 CH3 | – | – | – | Percent LRF Potency In Vitro [5]: 1,500%; Percent LRF Potency In Vivo (rats [6]): 300%
CC(C)C[C@H](NC(=O)[C@H](NC(=O)[C@H](Cc1ccc(O)cc1)NC(=O)[C@H](CO)NC(=O)[C@H](Cc1c[nH]c2ccccc12)NC(=O)[C@H](Cc1c[nH]cn1)NC(=O)[C@@H]1CCC(=O)N1)C(C)C)C(=O)N[C@@H](CCCNC(=N)N)C(=O)N1CCC[C@H]1C(=O)NCC(N)=O [D-Val for Gly] | 30 | – | – | –
CC(C)C[C@H](NC(=O)[C@H](C)NC(=O)[C@H](Cc1ccc(O)cc1)NC(=O)[C@H](CO)NC(=O)[C@H](Cc1c[nH]c2ccccc12)NC(=O)[C@H](Cc1c[nH]cn1)NC(=O)[C@@H]1CCC(=O)N1)C(=O)N[C@@H](CCCNC(=N)N)C(=O)N1CCC[C@H]1C(=O)NCC(N)=O [L-Ala for Gly in the 6-position of LRF] | 3 | – | – | –
CCNC(=O)[C@@H]1CCCN1C(=O)[C@H](CCCNC(=N)N)NC(=O)[C@H](CC(C)C)NC(=O)[C@@H](C)NC(=O)[C@H](Cc1ccc(O)cc1)NC(=O)[C@H](CO)NC(=O)[C@H](Cc1c[nH]c2ccccc12)NC(=O)CNC(=O)[C@@H]1CCC(=O)N1 [pGlu-Gly-Trp-Ser-Tyr-D-Ala-Leu-Arg-Pro-NHCH2 CH3] ([pGlu]GWSY[dA]LRP-NHEt) | – | 500 | 700 | –
CC(C)C[C@H](NC(=O)CNC(=O)[C@H](Cc1ccc(O)cc1)NC(=O)[C@H](CO)NC(=O)[C@H](Cc1c[nH]c2ccccc12)NC(=O)[C@@H]1CCC(=O)N1)C(=O)N[C@@H](CCCNC(=N)N)C(=O)N1CCC[C@H]1C(=O)NCC(N)=O [pGlu-deleted-Trp-Ser-Tyr-Gly-Leu-Arg-Pro-Gly-NH2] ([pGlu]WSYGLRPG-NH2) | – | 3,000 | 2,000 | –
CC(C)C[C@H](NC(=O)[C@@H](CC(C)C)NC(=O)[C@H](Cc1ccc(O)cc1)NC(=O)[C@H](CO)NC(=O)[C@H](Cc1c[nH]c2ccccc12)NC(=O)[C@H](Cc1c[nH]cn1)NC(=O)[C@@H]1CCC(=O)N1)C(=O)N[C@@H](CCCNC(=N)N)C(=O)N1CCC[C@H]1C(=O)NCC(N)=O [D-Leu for Gly] | 60 | – | – | –
CC(C)C[C@H](NC(=O)CNC(=O)[C@H](Cc1ccc(O)cc1)NC(=O)[C@H](CO)NC(=O)[C@H](Cc1c[nH]c2ccccc12)NC(=O)[C@H](Cc1c[nH]cn1)NC(=O)[C@@H]1CCC(=O)N1)C(=O)N[C@@H](CCCNC(=N)N)C(=O)N1CCC[C@H]1C(=O)NCC(N)=O [pGlu-His-Trp-Ser-Tyr-Gly-Leu-Arg-Pro-Gly-NH2] | – | – | – | release of gonadotropins by the pituitary gland (in words) (pituitary gland [7]): significant release of gonadotropins
